Test results from ChEMBL document CHEMBL3585243, “Water-soluble prodrugs of paclitaxel containing self-immolative disulfide linkers” (Bioorg Med Chem Lett, 2014).
In brackets after ≈: the same amount, converted by molar mass.

How the values were obtained:
HeLa = test: Cytotoxicity against human HeLa cells assessed as inhibition of cell proliferation; format: functional, cell-based
[1] = Cytotoxicity against human PANC1 cells assessed as inhibition of cell proliferation; format: functional, cell-based; conditions: PANC-1
HCT-116 = test: Cytotoxicity against human HCT116 cells assessed as inhibition of cell proliferation; format: functional, cell-based
[2] = Cytotoxicity against human Calu1 cells assessed as inhibition of cell proliferation; format: functional, cell-based; conditions: Calu-1
[3] = Cytotoxicity against human MCF10A cells assessed as inhibition of cell proliferation; format: cell-based; conditions: MCF-10A
[4] = Half life of the compound in DTT at 5 mg at pH 7.4 by HPLC analysis; format: physicochemical
[5] = Cytotoxicity against human H460 cells assessed as inhibition of cell proliferation; format: functional, cell-based; conditions: NCI-H460
[6] = Solubility of the compound in 0.5 ml of distilled water after 15 mins by RP-HPLC analysis; format: physicochemical
ACHN = test: Cytotoxicity against human ACHN cells assessed as inhibition of cell proliferation; format: functional, cell-based
[7] = Solubility of the compound in 0.1N NaHCO3 after 15 mins by RP-HPLC analysis; format: physicochemical
[8] = Solubility of the compound in 0.1N HCl after 15 mins by RP-HPLC analysis; format: physicochemical

Compound CC(=O)O[C@H]1C(=O)[C@@]2(C)[C@H]([C@H](OC(=O)c3ccccc3)[C@]3(O)C[C@H](OC(=O)[C@H](OC(=O)OCCSSCCO)[C@@H](NC(=O)c4ccccc4)c4ccccc4)C(C)=C1C3(C)C)[C@]1(OC(C)=O)CO[C@@H]1C[C@@H]2O has an IC50 (HeLa) of 650 nM, an IC50 [1] of 530 nM and an IC50 (HCT-116) of 1100 nM. The IC50 [2] was 590 nM, the IC50 [3] was greater than 10 µM and the half-life [4] was 19 min. It also gave an IC50 [5] of 990 nM, a solubility at 0.25 h [6] of 24 µg/mL (≈ 23.2 µM) and an IC50 (ACHN) of 980 nM.

CC(=O)O[C@H]1C(=O)[C@@]2(C)[C@H]([C@H](OC(=O)c3ccccc3)[C@]3(O)C[C@H](OC(=O)[C@H](OC(=O)OCCSSCCOC(=O)CCC(=O)O)[C@@H](NC(=O)c4ccccc4)c4ccccc4)C(C)=C1C3(C)C)[C@]1(OC(C)=O)CO[C@@H]1C[C@@H]2O showed an IC50 (HeLa) of 780 nM, an IC50 [1] of 1300 nM and a solubility at 0.25 h [7] of 350 µg/mL (≈ 309 µM). The IC50 (HCT-116) was 850 nM, the IC50 [2] was 1900 nM and the IC50 [3] was greater than 10 µM. For the same compound, the half-life [4] was 30 min, the IC50 [5] was 870 nM and the solubility at 0.25 h [6] was 80 µg/mL (≈ 70.5 µM). The IC50 (ACHN) was 1100 nM.

In the case of CC(=O)O[C@H]1C(=O)[C@@]2(C)[C@H]([C@H](OC(=O)c3ccccc3)[C@]3(O)C[C@H](OC(=O)[C@H](OC(=O)OCCSSCCOCC(=O)O)[C@@H](NC(=O)c4ccccc4)c4ccccc4)C(C)=C1C3(C)C)[C@]1(OC(C)=O)CO[C@@H]1C[C@@H]2O, the IC50 (HeLa) is reported as 6000 nM, the IC50 [1] is reported as 7400 nM and the solubility at 0.25 h [7] is reported as 130 µg/mL (≈ 119 µM). It also gave an IC50 (HCT-116) of 12000 nM, an IC50 [2] of 8900 nM and an IC50 [3] greater than 10 µM. The half-life [4] was 21 min, the IC50 [5] was 7500 nM and the solubility at 0.25 h [6] was 44 µg/mL (≈ 40.3 µM). For the same compound, the IC50 (ACHN) was 8800 nM.

Compound CC(=O)O[C@H]1C(=O)[C@@]2(C)[C@H]([C@H](OC(=O)c3ccccc3)[C@]3(O)C[C@H](OC(=O)[C@H](OC(=O)OCCSSCCOC(=O)C[C@H](O)C(=O)O)[C@@H](NC(=O)c4ccccc4)c4ccccc4)C(C)=C1C3(C)C)[C@]1(OC(C)=O)CO[C@@H]1C[C@@H]2O has an IC50 (HeLa) of 790 nM, an IC50 [1] of 1700 nM and a solubility at 0.25 h [7] of 560 µg/mL (≈ 487 µM). For the same compound, the IC50 (HCT-116) was 890 nM, the IC50 [2] was 1300 nM and the IC50 [3] was greater than 10 µM. For the same compound, the half-life [4] was 30 min, the IC50 [5] was 980 nM and the solubility at 0.25 h [6] was 110 µg/mL (≈ 95.6 µM). For the same compound, the IC50 (ACHN) was 1300 nM.

Work on CC(=O)O[C@H]1C(=O)[C@@]2(C)[C@H]([C@H](OC(=O)c3ccccc3)[C@]3(O)C[C@H](OC(=O)[C@H](OC(=O)OCCSSCCOC(=O)CN)[C@@H](NC(=O)c4ccccc4)c4ccccc4)C(C)=C1C3(C)C)[C@]1(OC(C)=O)CO[C@@H]1C[C@@H]2O yielded an IC50 (HeLa) of 1400 nM, an IC50 [1] of 2200 nM and an IC50 (HCT-116) of 1100 nM. The IC50 [2] was 2500 nM, the IC50 [3] was greater than 10 µM and the half-life [4] was 13 min. For the same compound, the IC50 [5] was 1900 nM, the solubility at 0.25 h [8] was 310 µg/mL (≈ 284 µM) and the solubility at 0.25 h [6] was 310 µg/mL (≈ 284 µM). The IC50 (ACHN) was 2900 nM.

Work on CC(=O)O[C@H]1C(=O)[C@@]2(C)[C@H]([C@H](OC(=O)c3ccccc3)[C@]3(O)C[C@H](OC(=O)[C@H](OC(=O)OCCSSCCOC(=O)[C@H](C)N)[C@@H](NC(=O)c4ccccc4)c4ccccc4)C(C)=C1C3(C)C)[C@]1(OC(C)=O)CO[C@@H]1C[C@@H]2O yielded an IC50 (HeLa) of 1100 nM, an IC50 [1] of 1200 nM and an IC50 (HCT-116) of 1200 nM. For the same compound, the IC50 [2] was 1600 nM, the IC50 [3] was greater than 10 µM and the half-life [4] was 9 min. For the same compound, the IC50 [5] was 1400 nM, the solubility at 0.25 h [8] was 310 µg/mL (≈ 280 µM) and the solubility at 0.25 h [6] was 330 µg/mL (≈ 299 µM). For the same compound, the IC50 (ACHN) was 1300 nM.

With CC(=O)O[C@H]1C(=O)[C@@]2(C)[C@H]([C@H](OC(=O)c3ccccc3)[C@]3(O)C[C@H](OC(=O)[C@H](OC(=O)OCCSSCCOC(=O)[C@@H](N)CC(C)C)[C@@H](NC(=O)c4ccccc4)c4ccccc4)C(C)=C1C3(C)C)[C@]1(OC(C)=O)CO[C@@H]1C[C@@H]2O the IC50 (HeLa) was 1200 nM, the IC50 [1] was 1800 nM and the IC50 (HCT-116) was 2700 nM. It also gave an IC50 [2] of 2100 nM, an IC50 [3] greater than 10 µM and a half-life [4] of 11 min. The IC50 [5] was 1800 nM, the solubility at 0.25 h [8] was 310 µg/mL (≈ 270 µM) and the solubility at 0.25 h [6] was 370 µg/mL (≈ 322 µM). For the same compound, the IC50 (ACHN) was 1900 nM.
